One test relates to LV-VSV-G. The format is cell-based, VSV-G pseudotyped lentivirus.
Test [1] deals with HSV-2. Description: Evaluation of virucidal activity against HSV-2. The format is cell-based. The conditions noted are these: HSV-2, virucidal assay (FIG. 1/2 bottom). The procedure: (§1) Evaluation of Virucidal Activity Against HSV-2, HPV-16
(§2) Viral titers were calculated at dilutions at which the nanoparticle was not effective

The subject of a further test is HPV-16. Nature of the test: Evaluation of virucidal activity against HPV-16. The format is cell-based, human papillomavirus (HPV). The note with it: FIG. 6. The procedure:
as §1, §2

Test [2] deals with HSV-2. Nature of the test: Inhibition assay HSV-2 (dose response, plaque reduction in Vero cells). The note with it: HSV-2, dose response assay (FIG. 1/2 top). The format is cell-based. How it is done: The effect of cyclodextrins (CDs) on HSV infection was evaluated by a plaque reduction assay. Vero cells were pre-plated 24 h in advance in 24-well plates at a density of 10^5 cells. Increasing concentrations of cyclodextrins were incubated with HSV-2 (multiplicity of infection (MOI) 0.0003 plaque forming units (pfu)/cell) at 37° C. for 1 hour and then the mixtures were added to the cells. Following virus adsorption (2 h at 37° C.), the virus inoculum was removed, the cells were washed with medium and then overlaid with a medium containing 1.2% methylcellulose. After 24 h (HSV-2) of incubation at 37° C., cells were fixed and stained with 0.1% of crystal violet in 20% ethanol and viral plaques were counted. The concentration producing 50% reduction in plaque formation (IC50) was determined using the Prism software by comparing drug-treated and untreated wells.

For `O[C@@H]1[C@@H](O)[C@H]2O[C@H]3[C@H](O)[C@@H](O)[C@@H](O[C@H]4[C@H](O)[C@@H](O)[C@@H](O[C@H]5[C@H](O)[C@@H](O)[C@@H](O[C@H]6[C@H](O)[C@@H](O)[C@@H](O[C@H]7[C@H](O)[C@@H](O)[C@@H](O[C@H]8[C@H](O)[C@@H](O)[C@@H](O[C@@H]1[C@@H](CI)O2)O[C@@H]8CI)O[C@@H]7CI)O[C@@H]6CI)O[C@@H]5CI)O[C@@H]4CI)O[C@@H]3CI` [CD1, Heptakis-6-iodo-6-deoxy-beta-cyclodextrin], in the test on LV-VSV-G, the “Virucidal assay, Dilutions: 1:10” value was found to be 27.38 and the “Virucidal assay, Dilutions: Stock” value stood at 85.49.
Consider `O=S(=O)(O)CCCCCCCCCCCSCC1OC2OC3C(CSCCCCCCCCCCCS(=O)(=O)O)OC(OC4C(CSCCCCCCCCCCCS(=O)(=O)O)OC(OC5C(CSCCCCCCCCCCCS(=O)(=O)O)OC(OC6C(CSCCCCCCCCCCCS(=O)(=O)O)OC(OC7C(CSCCCCCCCCCCCS(=O)(=O)O)OC(OC8C(CSCCCCCCCCCCCS(=O)(=O)O)OC(OC1C(O)C2O)C(O)C8O)C(O)C7O)C(O)C6O)C(O)C5O)C(O)C4O)C(O)C3O` (stereo not shown) [CD2], for which the “Virucidal effect against Lenti virus” value in the test on LV-VSV-G is given as “virucidal effect”. Moreover, in the test with HSV-2 [1], the “Virucidal effect against HSV-2 in virucidal assay” value is reported as “Virucidal effect observed”. The “Virucidal effect against human papillomavirus (HPV)” value in the test on HPV-16 is “virucidal effect”.
For “beta-cyclodextrin sulfonate [reference compound]”, the “Inhibition of HSV-2 in dose response assay” value in the test on HSV-2 [2] was “Inhibition is observed at high concentrations”. Further, the “Virucidal effect against HSV-2 in virucidal assay” value in the test with HSV-2 [1] was “no virucidal effect is observed”.
